Molecular target: human Factor Xa (Homo sapiens, UniProt P00742)
Experiment: In Vitro Enzyme Inhibitor Assay (Factor Xa inhibitory activity)
Format: biochemical
Conditions: human Factor Xa 0.5-5 nM, pH 8, 150 μM zinc chloride, 1 hour preincubation at room temperature, substrate MesOC-Norleu-Gly-Arg-pNA; read-out: Apparent inhibition constants (Ki)
Experimental: The following represents an assay for determining the Factor Xa inhibitory activity of compounds of Formula I.
Apparent inhibition constants (Ki) were calculated from the enzyme progress curves using standard mathematical models.

Sequence of human Factor Xa (P00742 235-488 limits assumed): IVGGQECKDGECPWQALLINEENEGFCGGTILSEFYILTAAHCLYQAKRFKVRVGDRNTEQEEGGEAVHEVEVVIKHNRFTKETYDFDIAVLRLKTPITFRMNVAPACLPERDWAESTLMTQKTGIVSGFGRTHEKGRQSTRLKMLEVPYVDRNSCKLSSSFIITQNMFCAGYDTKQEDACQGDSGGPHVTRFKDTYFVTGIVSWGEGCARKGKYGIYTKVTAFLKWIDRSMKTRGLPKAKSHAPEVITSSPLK
Sequence of human Factor Xa (P00742 41-179 partner limits assumed): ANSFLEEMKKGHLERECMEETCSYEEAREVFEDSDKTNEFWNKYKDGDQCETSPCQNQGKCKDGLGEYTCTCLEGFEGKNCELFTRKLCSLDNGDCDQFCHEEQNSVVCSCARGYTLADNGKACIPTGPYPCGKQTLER

Ki [nM]	Compound
2	COc1ccc(CCNC(=O)c2ccc(-c3nc4cc(C(=N)N)ccc4[nH]3)nc2)cc1Br [Compound 57]
6	N=C(N)c1ccc2[nH]c(-c3nccn3CCCC(=O)NCCc3ccc(Cl)cc3)nc2c1 [Compound 100, 4-[2-(5-amidino-1H-benzimidazol-2-yl)imidazol-1-yl]-N-[2-(4-chlorophenyl)ethyl]butyramide]
5	CCCCn1ccnc1-c1nc2cc(C(=N)N)ccc2[nH]1 [Compound 27, 2-(1-butyl-1H-imidazol-2-yl)-1H-benzimidazole-5-carboxamidine]
6	N=C(N)c1ccc2[nH]c(-c3nccn3CC(=O)NCCc3ccc(O)cc3)nc2c1 [Compound 95, 2-(5-amidino-1H-benzimidazol-2-yl)imidazol-1-yl-N-[2-(4-hydroxyphenyl)ethyl]acetamide]
7	CCCn1cnc(-c2nc3cc(C(=N)N)ccc3[nH]2)c1C [Compound 20, 2-(5-methyl-1-propyl-1H-imidazol-4-yl)-1H-benzimidazole-5-carboxamidine]
30	N=C(N)c1ccc2[nH]c(-c3nccn3CC(=O)NCCc3cccc4ccccc34)nc2c1 [Compound 96, 2-(5-amidino-1H-benzimidazol-2-yl)imidazol-1-yl-N-(2-naphth-1-ylethyl)acetamide]
6	N=C(N)c1ccc2[nH]c(-c3nccn3CCCCN3C(=O)c4ccccc4C3=O)nc2c1 [Compound 39, 2-{1-[4-(1,3-dioxo-1,3-dihydroisoindol-2-yl)butyl]-1H-imidazol-2-yl}-1H-benzimidazole-5-carboxamidine]
8	Cc1c(-c2nc3cc(C(=N)N)ccc3[nH]2)ncn1Cc1ccccc1 [Compound 16, 2-(5-methyl-1-benzyl-1H-imidazol-4-yl)-1H-benzimidazole-5-carboxamidine]
10	COc1ccc(CCNC(=O)c2ccnc(-c3nc4cc(C(=N)N)ccc4[nH]3)c2)cc1 [Compound 50, 6-(5-amidino-1H-benzimidazol-2-yl)-N-[2-(4-methoxyphenyl)ethyl]pyridine-4-carboxamide]
2	N=C(N)c1ccc2[nH]c(-c3nccn3CCCC(=O)N3CCOCC3)nc2c1 [Compound 98, 2-[1-(3-morpholin-4-ylcarbonylpropyl)-1H-imidazol-2-yl]-1H-benzimidazole-5-carboxamidine]
5	CCOC(=O)Cn1ccnc1-c1nc2cc(C(=N)N)ccc2[nH]1 [Compound 33, ethyl 2-(5-amidino-1H-benzimidazol-2-yl)imidazol-1-ylacetate]
5	Cc1c(-c2nc3cc(C(=N)N)ccc3[nH]2)ncn1CCCN1C(=O)c2ccccc2C1=O [Compound 36, 2-{1-[3-(1,3-dioxo-1,3-dihydroisoindol-2-yl)propyl]-5-methyl-1H-imidazol-4-yl}-1H-benzimidazole-5-carboxamidine]
3	CCCCc1ccc(-c2nc3cc(C(=N)N)ccc3[nH]2)nc1 [Compound 1]
3	N=C(N)c1ccc2[nH]c(-c3nccn3CC(=O)NCCc3ccc(Cl)cc3)nc2c1 [Compound 90, 2-(5-amidino-1H-benzimidazol-2-yl)imidazol-1-yl-N-[2-(4-chlorophenyl)ethyl]acetamide]
4	N=C(N)c1ccc2[nH]c(-c3nccn3Cc3ccccc3)nc2c1 [Compound 17, 2-(1-benzyl-1H-imidazol-2-yl)-1H-benzimidazole-5-carboxamidine]

Compound	Ki [nM]
6-(5-amidino-1H-benzimidazol-2-yl)-N-[2-(3,4-dichlorophenyl)ethyl]pyridine- 5-carboxamide [Compound 88]	6
6-(5-amidino-1H-benzimidazol-2-yl)-N-[2-(4-methylphenyl)ethyl]pyridine-5-carboxamide [Compound 86]	8
6-(5-amidino-1H-benzimidazol-2-yl)-N-(2-morpholin-4-ylethyl)pyridine-5-carboxamide [Compound 69]	40
